The term melting point denotes the temperature of the solid-liquid transition.

Experimental findings from patent US11001569B2, “6-membered heteroaromatic substituted cyanoindoline derivatives as NIK inhibitors” (Janssen Pharmaceutica NV, priority 2016, dated 2021) are described below.

Series [1] concerns KMS12-BM (NIK WT) multiple myeloma cells. Briefly: Antiproliferative activity on KMS12-BM multiple myeloma cells (CellTiter-Glo). The series is classed as cell-based, human. The note with it: Homo sapiens, KMS-12-BM, 96 h, 96 hr treatment, averaged values, read-out: KMS-12 Proliferation inhibition (IC50 (nM)). An outline of the steps:
(§1)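 Cells plated at 15000 (JJN3) or 20000 (KMS12BM) per well and treated 96 h at 37° C, 5% CO2, final DMSO 0.3%, 9-point 1:3 dilutions. Viability by CellTiter-Glo luminescence; time-zero blank subtracted, growth expressed as percent of untreated control.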
(In general: In ATP-based viability assays light output follows the ATP content of the culture.)

Series [2] deals with recombinant human NF-kappaB-inducing Kinase (NIK/MAP3K14) (Homo sapiens, UniProt Q99558). As to the kind of experiment: Inhibition of auto-phosphorylation of recombinant human NIK/MAP3K14 activity (AlphaScreen). The conditions noted are these: 25 microM ATP, averaged over all measurements on all batches. It is filed as biochemical. In general terms: In Alpha technology, singlet oxygen from a donor bead excites a nearby acceptor bead.
recombinant human NF-kappaB-inducing Kinase (NIK/MAP3K14), sequence (Q99558 whole entry): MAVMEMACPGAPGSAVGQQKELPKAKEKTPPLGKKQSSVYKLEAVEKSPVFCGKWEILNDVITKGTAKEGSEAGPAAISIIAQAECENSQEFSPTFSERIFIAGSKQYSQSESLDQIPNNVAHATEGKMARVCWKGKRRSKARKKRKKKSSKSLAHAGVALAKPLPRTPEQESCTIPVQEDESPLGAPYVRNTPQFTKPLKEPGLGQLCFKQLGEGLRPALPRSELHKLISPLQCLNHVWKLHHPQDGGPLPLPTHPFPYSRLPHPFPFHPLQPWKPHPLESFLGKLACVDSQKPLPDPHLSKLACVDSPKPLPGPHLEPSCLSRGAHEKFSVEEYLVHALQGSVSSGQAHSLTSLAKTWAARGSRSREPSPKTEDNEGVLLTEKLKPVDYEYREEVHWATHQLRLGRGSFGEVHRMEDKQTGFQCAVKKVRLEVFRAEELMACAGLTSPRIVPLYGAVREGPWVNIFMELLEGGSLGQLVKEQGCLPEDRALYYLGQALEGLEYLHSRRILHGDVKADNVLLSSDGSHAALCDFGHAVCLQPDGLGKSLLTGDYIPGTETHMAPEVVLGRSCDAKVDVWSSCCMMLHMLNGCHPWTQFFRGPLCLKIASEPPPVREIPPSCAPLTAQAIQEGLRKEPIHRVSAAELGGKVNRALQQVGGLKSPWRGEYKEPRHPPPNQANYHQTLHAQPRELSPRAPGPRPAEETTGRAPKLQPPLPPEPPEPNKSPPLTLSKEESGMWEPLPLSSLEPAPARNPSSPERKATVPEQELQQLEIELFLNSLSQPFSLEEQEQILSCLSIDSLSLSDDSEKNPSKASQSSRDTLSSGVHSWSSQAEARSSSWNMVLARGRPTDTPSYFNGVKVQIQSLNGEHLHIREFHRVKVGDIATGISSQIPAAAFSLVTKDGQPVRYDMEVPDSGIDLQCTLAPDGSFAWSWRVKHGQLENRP

In series [3] the test system is JJN-3 (NIK translocated) multiple myeloma cells. As to the kind of experiment: Antiproliferative activity on JJN-3 multiple myeloma cells (CellTiter-Glo). It is filed as cell-based, human. The note with it: Homo sapiens, JJN-3, 96 h, JJN-3 (NIK translocated) cells, 96 hr treatment, averaged values, read-out: JJN-3 Proliferation inhibition (IC50 (nM)). Summed up:
as §1

The test system of series [4] is P-IKKα levels in L363 (NIK translocated multiple myeloma) cells. As to the kind of experiment: Effect of compounds on P-IKKα levels in L363 cells (Mesoscale sandwich immuno-assay). The conditions noted are these: 2 hr treatment, averaged values, read-out: Inhibition of pIKKα_L-363 (IC50 (nM)). The series is classed as cell-based, human. As to the method:
Effect of Compounds on P-IKKα Levels in L363 (NIK Translocated Multiple Myeloma) Cells
All compounds tested were dissolved in DMSO and further dilutions were made in culture medium. Final DMSO concentration was 1% (v/v) in cell assays. The human L363 cells (ATCC) were cultured in RPMI 1640 medium supplemented with GlutaMax and 10% fetal calf serum (PAA). Cells were routinely maintained at densities of 0.2×10^6 cells per ml-1×10^6 cells per ml at 37° C. in a humidified 5% CO2 atmosphere. Cells were passaged twice a week splitting back to obtain the low density. Cells were seeded in 96 well plates (Nunc 167008) at 2×10^6 per ml media in a volume of 75 μl per well plus 25 μl 1 μg/ml recombinant human B-cell activating factor (BAFF/BLyS/TNFSF13B). Seeded cells were incubated at 37° C. in a humidified 5% CO2 atmosphere for 24 hr. Drugs and/or solvents were added (20 μl) to a final volume of 120 μl. Following 2 hr treatment plates were removed from the incubator and cell lysis was achieved by the addition of 30 μl 5× lysis buffer followed by shaking on a plate shaker at 4° C. for 10 min. At the end of this incubation lysed cells were centrifuged at 800×g for 20 min at 4° C. and the lysate was assessed for P-IKK levels by sandwich immuno-assay carried out in anti-rabbit antibody coated Mesoscale plates. Within an experiment, the results for each treatment were the mean of 2 replicate wells. For initial screening purposes, compounds were tested using an 8 point dilution curve (serial 1:3 dilutions). […] The blank incubation value was subtracted from all control and sample values. To determine the IC50 a sigmoidal curve was fitted to the plot of % inhibition of control P-IKKα levels versus Log10 compound concentration.

Structures are written as SMILES. Read-outs that look alike come from different tables or passages of the source.

Molecule `Cc1cc(Nc2nccc(-c3cc(C#N)c4c(c3)[C@@](C)(CO)CN4)n2)c(=O)n(CC(C)N2CCOCC2)c1` (mixture of isomers) [Compound 18i] displayed a melting point of 208 °C. In series [1], the IC50 was greater than 10000 nM. Further, the IC50 in series [2] came out at 0.9 nM. Also, the IC50 in series [3] was 49 nM. In series [4] (Homo sapiens, L-363, 2 h), the IC50 was 4.9 nM.

`Cc1cc(Nc2nccc(-c3cc(C#N)c4c(c3)[C@@](C)(CO)CN4)n2)c(=O)n(CC(C)N2CCOCC2)c1` (single isomer, unassigned) [Compound 22i] returned a melting point of 138 °C. Moreover, the IC50 in series [1] is 9120 nM. Also, the IC50 in series [2] is 3.4 nM. The IC50 in series [3] came to 33 nM. The IC50 in series [4] (Homo sapiens, L-363, 2 h) is 2.1 nM.

Turning to `Cc1cnc(OCC2CN(C)CCO2)c(Nc2nccc(-c3cc(C#N)c4c(c3)[C@@](C)(CO)CN4)n2)c1` (single isomer, unassigned) [Compound 152], the melting point was 140 °C. Moreover, the IC50 in series [2] was found to be 14.1 nM. Besides, in series [4], the IC50 is 85.1 nM.

`CC1(C)CNc2c(C#N)cc(-c3ccnc(Nc4cc(F)cn(CCN5CC(F)C5)c4=O)n3)cc21` [Compound 28i] returned a melting point of 235 °C. In addition, the IC50 in series [2] was found to be 7.6 nM. In series [4] (Homo sapiens, L-363, 2 h), the IC50 is 21.4 nM.

Consider `Cc1cc(Nc2ncnc(-c3cc(C#N)c4c(c3)[C@@](C)(CO)CN4)n2)c(=O)n(C)c1` [Compound 30i], for which the melting point was found to be 276 °C. In series [2], the IC50 was 4.6 nM. For the same molecule, the IC50 in series [4] (Homo sapiens, L-363, 2 h) was 14.5 nM.

Take `COCCCc1ccc(Nc2nccc(-c3cc(C#N)c4c(c3)[C@@](C)(CO)CN4)n2)c(OC)n1` [Compound 58]: the IC50 was greater than 10000 nM in series [1]; 6.9 nM in series [2]; 200 nM in series [3]; roughly 17 nM in series [4] (Homo sapiens, L-363, 2 h).

Consider `COCCOc1nc(P(C)(C)=O)ccc1Nc1nccc(-c2cc(C#N)c3c(c2)[C@@](C)(CO)CN3)n1` [Compound 60], for which the IC50 in series [1] is greater than 10000 nM; in series [2], 7.2 nM; in series [3], 708 nM; in series [4] (Homo sapiens, L-363, 2 h) it was 70.8 nM.

Turning to `COCCOc1ncc(C2CC2)cc1Nc1nccc(-c2cc(C#N)c3c(c2)[C@@](C)(CO)CN3)n1` [Compound 67], the IC50 in series [1] is greater than 10000 nM; in series [2] it was 12.3 nM; in series [3], 204 nM; in series [4] (Homo sapiens, L-363, 2 h), 186 nM.

`Cc1cnc(CCC2CC2)c(Nc2nccc(-c3cc(C#N)c4c(c3)[C@@](C)(CO)CN4)n2)c1` [Compound 68]: the IC50 in series [1] is 5130 nM; in series [2] it was 3.9 nM; in series [3], 98 nM; in series [4] (Homo sapiens, L-363, 2 h) it was roughly 20 nM.

Consider `CC(C)Oc1ncc(C#N)cc1Nc1nccc(-c2cc(C#N)c3c(c2)[C@@](C)(CO)CN3)n1` [Compound 75], for which the IC50 was greater than 10000 nM in series [1]; 9.8 nM in series [2]; greater than 10000 nM in series [3]; 18.2 nM in series [4] (Homo sapiens, L-363, 2 h).

With `CC(C)(CO)Oc1ncc(C#N)cc1Nc1nccc(-c2cc(C#N)c3c(c2)[C@@](C)(CO)CN3)n1` [Compound 78], the IC50 in series [1] was greater than 10000 nM; in series [2], 4.7 nM; in series [3], 589 nM; in series [4] (Homo sapiens, L-363, 2 h), 28.2 nM.

As for `Cc1cnc(CCC(=O)N(C)C)c(Nc2nccc(-c3cc(C#N)c4c(c3)[C@@](C)(CO)CN4)n2)c1` [Compound 80], the IC50 in series [1] is greater than 10000 nM; in series [2] it was 3.7 nM; in series [3], 525 nM; in series [4] (Homo sapiens, L-363, 2 h) it was 38.9 nM.

Consider `Cc1cnc(/C=C/C(=O)N(C)C)c(Nc2nccc(-c3cc(C#N)c4c(c3)[C@@](C)(CO)CN4)n2)c1` [Compound 84], for which the IC50 is greater than 10000 nM in series [1]; 5.6 nM in series [2]; 4680 nM in series [3]; 11.8 nM in series [4] (Homo sapiens, L-363, 2 h).

Take `C[C@]1(CO)CNc2c(C#N)cc(-c3ccnc(Nc4cc(C#N)cnc4OC4CC4)n3)cc21` [Compound 85]: the IC50 was greater than 10000 nM in series [1]; 2.5 nM in series [2]; 372 nM in series [3]; 3 nM in series [4] (Homo sapiens, L-363, 2 h).

As to `CNC(=O)c1cnc(CCC2CC2)c(Nc2nccc(-c3cc(C#N)c4c(c3)[C@@](C)(CO)CN4)n2)c1` [Compound 87], the IC50 was greater than 10000 nM in series [1]; 3.8 nM in series [2]; 427 nM in series [3]; 27.5 nM in series [4] (Homo sapiens, L-363, 2 h).

In the case of `Cc1nc(P(C)(C)=O)c(Cl)cc1Nc1nccc(-c2cc(C#N)c3c(c2)[C@@](C)(CO)CN3)n1` [Compound 90], the IC50 in series [1] was greater than 10000 nM; in series [2], 1.9 nM; in series [3] it was 5890 nM; in series [4] (Homo sapiens, L-363, 2 h), 32.4 nM.

In the case of `Cc1cc(Nc2nccc(-c3cc(C#N)c4c(c3)[C@@](C)(CO)CN4)n2)c(CCC2CC2)nc1P(C)(C)=O` [Compound 96], the IC50 in series [1] was greater than 10000 nM; in series [2], 2.2 nM; in series [3], 65 nM; in series [4] (Homo sapiens, L-363, 2 h), 1.1 nM.

Consider `COc1ncccc1Nc1nccc(-c2cc(C#N)c3c(c2)C(C)(C)CN3)n1` [Compound 97], for which the IC50 is greater than 10000 nM in series [1]; 9.8 nM in series [2]; 1820 nM in series [3]; 42.7 nM in series [4] (Homo sapiens, L-363, 2 h).

In the case of `COCCNc1nc(OC)c(Nc2nccc(-c3cc(C#N)c4c(c3)C(C)(C)CN4)n2)cc1Cl` [Compound 98], the IC50 was greater than 10000 nM in series [1]; 50.1 nM in series [2]; 832 nM in series [3]; 45.7 nM in series [4] (Homo sapiens, L-363, 2 h).

As to `COc1nc(N(C)C)c(Cl)cc1Nc1nccc(-c2cc(C#N)c3c(c2)C(C)(C)CN3)n1` [Compound 99], the IC50 in series [1] is greater than 10000 nM; in series [2] it was 123 nM; in series [3] it was 708 nM; in series [4] (Homo sapiens, L-363, 2 h), 275 nM.

`COc1nc(C2CCOCC2)ncc1Nc1nccc(-c2cc(C#N)c3c(c2)[C@@](C)(CO)CN3)n1` [Compound 140]: the IC50 in series [1] is greater than 10000 nM; in series [2], 4.8 nM; in series [3], 427 nM; in series [4] (Homo sapiens, L-363, 2 h), 12 nM.

Regarding `COCCOc1nc(C2CCOCC2)ncc1Nc1nccc(-c2cc(C#N)c3c(c2)[C@@](C)(CO)CN3)n1` [Compound 141], the IC50 in series [1] is 4790 nM; in series [2], 18.6 nM; in series [3], 741 nM; in series [4] (Homo sapiens, L-363, 2 h), 355 nM.

Turning to `Cc1cc(Nc2ncc(F)c(-c3cc(C#N)c4c(c3)[C@@](C)(CO)CN4)n2)c(C)cn1` [Compound 158], the IC50 in series [1] was greater than 10000 nM; in series [2], 1.6 nM; in series [3] it was 49 nM; in series [4] (Homo sapiens, L-363, 2 h), 2.3 nM.

Turning to `COc1nc(CC(C)C)c(Nc2nccc(-c3cc(C#N)c4c(c3)[C@@](C)(CO)CN4)n2)cc1C` [Compound 161], the IC50 in series [1] is greater than 10000 nM; in series [2] it was 28.2 nM; in series [3] it was 417 nM; in series [4] (Homo sapiens, L-363, 2 h), 46.8 nM.

As for `CNC(=O)c1cc(Nc2nccc(-c3cc(C#N)c4c(c3)[C@@](C)(CO)CN4)n2)c(C)cn1` [Compound 165], the IC50 was greater than 10000 nM in series [1]; 1.3 nM in series [2]; 117 nM in series [3]; 6.2 nM in series [4] (Homo sapiens, L-363, 2 h).

`Cc1ncc(C(=O)N2CCN(C)CC2)cc1Nc1nccc(-c2cc(C#N)c3c(c2)[C@@](C)(CO)CN3)n1` [Compound 166] yielded a melting point of 150 °C. The IC50 in series [2] turned out to be 25.7 nM. Also, in series [4] (Homo sapiens, L-363, 2 h), the IC50 worked out at 229 nM.

With `Cc1cc(Nc2nccc(-c3cc(C#N)c4c(c3)[C@@](C)(CO)CN4)n2)c(C)nc1OC1CCN(C)CC1` [Compound 172], the IC50 was roughly 2190 nM in series [1]; 4.1 nM in series [2]; 26 nM in series [3]; 3.9 nM in series [4] (Homo sapiens, L-363, 2 h).

For `Cc1cc(Nc2nccc(-c3cc(C#N)c4c(c3)[C@@](C)(CO)CN4)n2)c(C)nc1OC1CCOCC1` [Compound 174], the melting point was found to be 199 °C. For the same molecule, the IC50 in series [2] was 6.5 nM. Further, the IC50 in series [4] (Homo sapiens, L-363, 2 h) amounted to 4 nM.

`CC1(C)CNc2c(C#N)cc(-c3ccnc(Nc4cc(Cl)cnc4C(=O)N4CCC(O)C4)n3)cc21` (stereo not shown) [Compound 180]: the melting point lay within 143 to 145 °C. For the same molecule, the IC50 in series [2] amounted to 339 nM. Further, the IC50 in series [4] (Homo sapiens, L-363, 2 h) was determined as 617 nM.
